Results on three molecules are retold here after paper PMC10550821, “Cryo-EM structures reveal native GABAA receptor assemblies and pharmacology” (Nature, 2023).

For test [1], the target named is T1, GABAA receptor α1 subunit (native α1-containing receptors, nα1-GABAARs) (Mus musculus, UniProt P22723+P62812).
T1 construct: gene Gabra1; native receptor ensemble purified from mouse brain (cerebellum excluded) in nanodiscs; with GABAA receptor γ2 subunit (Gabrg2); β2 subunit (Gabrb2) in the main assembly
As to the kind of experiment: radioligand binding, scintillation proximity assay. A general note: Scintillation proximity formats need no separation of bound from free tracer.

In test [2] the target is T2, GABAA receptor α1 subunit (native α1*-β2-α1-β2*-γ2 nα1-GABAAR) (Mus musculus, UniProt P22723+P62812).
T2 construct: gene Gabra1; main assembly alpha1/beta2/gamma2
As to the kind of experiment: cryo-EM structure; competitive [3H]flunitrazepam scintillation proximity assay. Type of test: binding.

For test [3], the target named is T3, GABAA receptor α1 subunit, as it stood in the measurement of the Kd of 8E3-GFP Fab (sample not stated) (Mus musculus (assumed; mature rat chain …, UniProt P62812).
T3 construct: GABAA receptor subunit alpha-1; the Kd may come from such a sample
As to the kind of experiment: not stated; dissociation constant of 8E3-GFP Fab, printed with a pointer to Extended Data Fig. 1; method and sample not told.

As a reminder, the Kd is the constant that tells how readily two partners part at equilibrium. Read a low Kd as higher affinity. Broadly, the Ki is the dissociation constant of the complex between target and ligand, obtained from inhibition or displacement.

With `CN1C(=O)CN=C(c2ccccc2F)c2cc([N+](=O)[O-])ccc21` [flunitrazepam], the Kd in test [1] was found to be 6 ± 0.2 nM.
Regarding `Cc1ccc(-c2nc3ccc(C)cn3c2CC(=O)N(C)C)cc1` [ZOL, zolpidem], in test [2], the Ki amounted to 22.9 ± 2.7 nM.

B1: 8E3-GFP Fab (α1 subunit-specific Fab fragment of mouse monoclonal antibody 8E3, with 3C site, EGFP and twin-strep II tag on the heavy chain) (Fab, V domains shown)
VH: EIQLQQSGPELVKPGTSVKVSCKASGYSFTDYNMYWVKQSHGKSLEWIGYIDPYNADTTYNREFKGKATLTVDKSSSTAFMHLNSLTSEDSAVYYCARKRNNFYFDYWGQGTPLTVSS
VL: YIVMTQSPKSMSMSLGERVTLSCRASEYVGSYVSWYQQKPEQSPKLLIYGASNRYTGVPDRFAGSGSATDFTLTITSVQAEDLADYHCGQTYNYPTFGGGTKLEIK
notes: Fab heavy chain of 8E3; Fab light chain of 8E3; Both chains were expressed with an N-terminal GP64 signal peptide; also called α1-specific Fab; source: Sf9, recombinant baculovirus, secreted into the supernatant, purified (streptactin column); not shown: EGFP, C-terminal, kept; twin-strep II, C-terminal, kept
As to B1, in test [3], binding was characterised by a dissociation constant (Kd) of 0.5 nM.
